In US20240287052A1, “NOVEL OXAZOLE DERIVATIVE AND PHARMACEUTICAL COMPOSITION FOR PREVENTING OR TREATING ALLERGIC DISEASES COMPRISING THE SAME” (AZCURIS CO., LTD., priority 2021, published 2024):
Where two headings read alike, the source gives them in different places.

Molecular target: T1, IL33 and ST2 binding (Homo sapiens, UniProt O95760)
T1 sequence (O95760 112-270 limits assumed): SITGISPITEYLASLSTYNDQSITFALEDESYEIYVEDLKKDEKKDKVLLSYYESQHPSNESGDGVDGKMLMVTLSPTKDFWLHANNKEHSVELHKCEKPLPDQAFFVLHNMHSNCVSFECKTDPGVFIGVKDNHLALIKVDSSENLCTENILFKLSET
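Note: plate ELISA with coated Flag-tagged human IL-33 and His-tagged human ST2, bound ST2 detected by anti-His HRP and TMB absorbance at 450 nm, 2 h compound incubation.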

Compound | inhibition (30 µM) | inhibition (100 µM)
CN1CCN(CCNC(=O)c2nc(-c3ccc(-c4ccccc4)cc3)oc2-c2ccccc2[N+](=O)[O-])CC1 [Compound 256, 2-([1,1′-Biphenyl]-4-yl)-N-(2-(4-methylpiperazin-1-yl)ethyl)-5-(2-nitrophenyl)oxazole-4-carboxamide] | 3% | 49%
CN(C)CCNC(=O)c1nc(-c2cccc(F)c2)oc1-c1ccccc1 [Compound 220, N-(2-(Dimethylamino)ethyl)-2-(3-fluorophenyl)-5-phenyloxazole-4-carboxamide] | -2% | -14%
CN1CCN(CCNC(=O)c2nc(-c3ccc(Cl)cc3)oc2-c2ccccc2)CC1 [Compound 245, 2-(4-Chlorophenyl)-N-(2-(4-methylpiperazin-1-yl)ethyl)-5-phenyloxazole-4-carboxamide] | 15% | 26%
CCOC(=O)c1nc(-c2ccc(OC)cc2)oc1-c1ccc([N+](=O)[O-])cc1 [Compound 64, Ethyl 2-(4-methoxyphenyl)-5-(4-nitrophenyl)oxazole-4-carboxylate] | 13% | 35%
CN1CCN(CCNC(=O)c2nc(-c3ccc(-c4ccccc4)cc3)oc2-c2ccccc2)CC1 [Compound 254, 2-([1,1′-Biphenyl]-4-yl)-N-(2-(4-methylpiperazin-1-yl)ethyl)-5-phenyloxazole-4-carboxamide] | -20% | 11%
CCOC(=O)c1nc(-c2ccc(C(C)(C)C)cc2)oc1-c1ccc(N(C(C)=O)C(C)=O)cc1 [Compound 110, Ethyl 5-(4-(N-acetylacetamido)phenyl)-2-(4-(tert-butyl)phenyl)oxazole-4-carboxylate] | 19% | 26%
CN(C)CCNC(=O)c1nc(-c2cccc(OC(F)(F)F)c2)oc1-c1ccccc1 [Compound 199, N-(2-(Dimethylamino)ethyl)-5-phenyl-2-(3-(trifluoromethoxy)phenyl)oxazole-4-carboxamide] | 7% | 2%
CN(C)CCNC(=O)c1nc(-c2ccc(OC(F)(F)F)cc2)oc1-c1ccccc1[N+](=O)[O-] [Compound 205, N-(2-(Dimethylamino)ethyl)-5-(2-nitrophenyl)-2-(4-(trifluoromethoxy)phenyl)oxazole-4-carboxamide] | -11% | 4%
O=C(c1nc(-c2ccc(C(F)(F)F)cc2)oc1-c1ccccc1[N+](=O)[O-])N1CCN(C2CC2)CC1 [Compound 146, (4-Cyclopropylpiperazin-1-yl)(5-(2-nitrophenyl)-2-(4-(trifluoromethyl)phenyl)oxazol-4-yl)methanone] | -35% | -57%
O=C(c1nc(-c2ccc(C(F)(F)F)cc2)oc1-c1ccccc1[N+](=O)[O-])N1CCN(CCN2CCCC2)CC1 [Compound 170, (5-(2-Nitrophenyl)-2-(4-(trifluoromethyl)phenyl)oxazol-4-yl)(4-(2-(pyrrolidin-1-yl)ethyl)piperazin-1-yl)methanone] | 3% | 2%
COc1ccc(-c2nc(C(=O)NCCN3CCN(C)CC3)c(-c3ccccc3[N+](=O)[O-])o2)cc1 [Compound 215, 2-(4-Methoxyphenyl)-N-(2-(4-methylpiperazin-1-yl)ethyl)-5-(2-nitrophenyl)oxazole-4-carboxamide] | -12% | 33%
CC(C)(C)OC(=O)N1CCN(CCNC(=O)c2nc(-c3ccc(C(F)(F)F)cc3)oc2-c2ccccc2[N+](=O)[O-])CC1 [Compound 172, tert-Butyl-4-(2-(5-(2-nitrophenyl)-2-(4-(trifluoromethyl)phenyl)oxazole-4-carboxamido)ethyl)piperazine-1-carboxylate] | 51% | 50%
CN1CCN(CCNC(=O)c2nc(-c3ccc(N(C)C)cc3)oc2-c2ccccc2)CC1 [Compound 262, 2-(4-(Dimethylamino)phenyl)-N-(2-(4-methylpiperazin-1-yl)ethyl)-5-phenyloxazole-4-carboxamide] | 14% | 33%
CN1CCN(CCNC(=O)c2nc(-c3cccc(Cl)c3)oc2-c2ccccc2[N+](=O)[O-])CC1 [Compound 243, 2-(3-chlorophenyl)-N-(2-(4-methylpiperazin-1-yl)ethyl)-5-(2-nitrophenyl)oxazole-4-carboxamide] | 14% | -6%
CCN(CC)CCN1CCN(C(=O)c2nc(-c3ccc(C(F)(F)F)cc3)oc2-c2ccccc2[N+](=O)[O-])CC1 [Compound 154, (4-(2-(Diethylamino)ethyl)piperazin-1-yl)(5-(2-nitrophenyl)-2-(4-(trifluoromethyl)phenyl)oxazol-4-yl)methanone] | 0% | -25%
CN(C)CCNC(=O)c1nc(-c2ccc(F)cc2)oc1-c1ccccc1 [Compound 224, N-(2-(Dimethylamino)ethyl)-2-(4-fluorophenyl)-5-phenyloxazole-4-carboxamide] | -13% | -18%
O=C(NCCc1ccc(F)cc1)c1nc(-c2ccc(C(F)(F)F)cc2)oc1-c1ccccc1[N+](=O)[O-] [Compound 149, N-(4-Fluorophenethyl)-5-(2-nitrophenyl)-2-(4-(trifluoromethyl)phenyl)oxazole-4-carboxamide] | 20% | 19%

Compound | inhibition (30 µM) | inhibition (100 µM)
CN(C)CCNC(=O)c1nc(-c2ccc(C3CC3)cc2)oc1-c1ccccc1 [Compound 279, 2-(4-Cyclopropylphenyl)-N-(2-(dimethylamino)ethyl)-5-phenyloxazole-4-carboxamide] | 16% | 4%
CN1CCN(CCNC(=O)c2nc(-c3ccc(F)cc3)oc2-c2ccccc2)CC1 [Compound 225, 2-(4-Fluorophenyl)-N-(2-(4-methylpiperazin-1-yl)ethyl)-5-phenyloxazole-4-carboxamide] | -6% | 7%
CCOC(=O)c1nc(-c2ccc(OC(F)(F)F)cc2)oc1-c1ccccc1 [Compound 58, Ethyl 5-phenyl-2-(4-(trifluoromethoxy)phenyl)oxazole-4-carboxylate] | 44% | 105%
CN(C)CCNC(=O)c1nc(-c2cccc(C(F)(F)F)c2)oc1-c1ccccc1[N+](=O)[O-] [Compound 123, N-(2-(Dimethylamino)ethyl)-5-(2-nitrophenyl)-2-(3-(trifluoromethyl)phenyl)oxazole-4-carboxamide] | -22% | 39%
CCOC(=O)c1nc(-c2ccc(C(F)(F)F)cc2)oc1-c1cccc(NC(C)=O)c1 [Compound 106, Ethyl 5-(3-acetamidophenyl)-2-(4-(trifluoromethyl)phenyl)oxazole-4-carboxylate] | -20% | -2%
COc1ccc(-c2nc(C(=O)NCCN3CCN(C)CC3)c(-c3ccccc3)o2)cc1 [Compound 213, 2-(4-Methoxyphenyl)-N-(2-(4-methylpiperazin-1-yl)ethyl)-5-phenyloxazole-4-carboxamide] | -34% | -9%
CN(C)CCNC(=O)c1nc(-c2ccc3ccccc3c2)oc1-c1ccccc1 [Compound 257, N-(2-(Dimethylamino)ethyl)-2-(naphthalen-2-yl)-5-phenyloxazole-4-carboxamide] | 6% | 1%
CN1CCN(CCNC(=O)c2nc(-c3cccc(F)c3)oc2-c2ccccc2[N+](=O)[O-])CC1 [Compound 223, 2-(3-Fluorophenyl)-N-(2-(4-methylpiperazin-1-yl)ethyl)-5-(2-nitrophenyl)oxazole-4-carboxamide] | 29% | 38%
O=C(NCc1cccnc1)c1nc(-c2ccc(C(F)(F)F)cc2)oc1-c1ccccc1[N+](=O)[O-] [Compound 142, 5-(2-Nitrophenyl)-N-(pyridin-3-ylmethyl)-2-(4-(trifluoromethyl)phenyl)oxazole-4-carboxamide] | 6% | 8%
CN(C)CCNC(=O)c1nc(-c2ccc(N(C)C)cc2)oc1-c1ccccc1[N+](=O)[O-] [Compound 263, N-(2-(Dimethylamino)ethyl)-2-(4-(dimethylamino)phenyl)-5-(2-nitrophenyl)oxazole-4-carboxamide] | -35% | -10%
CN1CCN(CCNC(=O)c2nc(-c3ccc(C4CC4)cc3)oc2-c2ccccc2)CC1 [Compound 280, 2-(4-Cyclopropylphenyl)-N-(2-(4-Methylpiperazin-1-yl)ethyl)-5-phenyloxazole-4-carboxamide] | 2% | 0%
CN(C)CCNC(=O)c1nc(-c2ccccc2C(F)(F)F)oc1-c1ccccc1 [Compound 117, N-(2-(Dimethylamino)ethyl)-5-phenyl-2-(2-(trifluoromethyl)phenyl)oxazole-4-carboxamide] | 4% | 10%
CN(C)CCN1CCN(C(=O)c2nc(-c3cccc(C(F)(F)F)c3)oc2-c2ccccc2[N+](=O)[O-])CC1 [Compound 125, (4-(2-(Dimethylamino)ethyl)piperazin-1-yl)(5-(2-nitrophenyl)-2-(3-(trifluoromethyl)phenyl)oxazol-4-yl)methanone] | 20% | 24%
CCOC(=O)c1nc(-c2ccc(C(F)(F)F)cc2)oc1-c1ccc(NC(C)=O)cc1 [Compound 107, Ethyl 5-(4-acetamidophenyl)-2-(4-(trifluoromethyl)phenyl)oxazole-4-carboxylate] | -15% | -9%
CN1CCN(CCNC(=O)c2nc(-c3ccc(F)cc3)oc2-c2ccccc2[N+](=O)[O-])CC1 [Compound 227, 2-(4-Fluorophenyl)-N-(2-(4-methylpiperazin-1-yl)ethyl)-5-(2-nitrophenyl)oxazole-4-carboxamide] | -22% | -28%
O=C(c1ccc(N2CCCCC2)cc1)c1nc(-c2ccc(C(F)(F)F)cc2)oc1-c1ccccc1[N+](=O)[O-] [Compound 162, (5-(2-Nitrophenyl)-2-(4-(trifluoromethyl)phenyl)oxazol-4-yl)(4-(piperidin-1-yl)phenyl)methanone] | 3% | 5%
